Data from ChEMBL document CHEMBL3045767, “Synthesis of novel 2-[4-(4-substitutedbenzamido/phenylacetamido)phenyl]benzothiazoles as antimicrobial agents” (2012).
Converted amounts (≈) assume the structure as drawn.

Assays:
Format in all cases: functional
Candida albicans [1] = assay: Antifungal activity against Candida albicans ATCC 10231 after 48 hr by CLSI broth microdilution method; settings: ATCC 10231, 48 h
Klebsiella pneumoniae [2] = assay: Antibacterial activity against Klebsiella pneumoniae producing extended spectrum beta lactamase enzyme after 24 hr by CLSI broth microdilution method
Pseudomonas aeruginosa [3] = assay: Antibacterial activity against Pseudomonas aeruginosa ATCC […] after 24 hr by CLSI broth microdilution method
Escherichia coli [4] = assay: Antibacterial activity against Escherichia coli producing extended spectrum beta lactamase enzyme after 24 hr by CLSI broth microdilution method
Bacillus subtilis [5] = assay: Antibacterial activity against ceftriaxon-resistant Bacillus subtilis after 24 hr by CLSI broth microdilution method
Bacillus subtilis [6] = assay: Antibacterial activity against Bacillus subtilis ATCC 6633 after 24 hr by CLSI broth microdilution method
Staphylococcus aureus [7] = assay: Antibacterial activity against methicillin-resistant Staphylococcus aureus after 24 hr by CLSI broth microdilution method
Escherichia coli [8] = assay: Antibacterial activity against Escherichia coli ATCC 25922 after 24 hr by CLSI broth microdilution method
Pseudomonas aeruginosa [9] = assay: Antibacterial activity against gentamicin-resistant Pseudomonas aeruginosa after 24 hr by CLSI broth microdilution method
Staphylococcus aureus [10] = assay: Antibacterial activity against Staphylococcus aureus ATCC 25923 after 24 hr by CLSI broth microdilution method
Klebsiella pneumoniae [11] = assay: Antibacterial activity against Klebsiella pneumoniae RSKK 574 after 24 hr by CLSI broth microdilution method
Staphylococcus aureus [12] = assay: Antibacterial activity against Staphylococcus aureus
Candida albicans [13] = assay: Antifungal activity against Candida albicans
Pseudomonas aeruginosa [14] = assay: Ratio of gentamycin sulfate MIC to compound MIC for gentamicin-resistant Pseudomonas aeruginosa
Pseudomonas aeruginosa [15] = assay: Ratio of ofloxacin MIC to compound MIC for gentamicin-resistant Pseudomonas aeruginosa

| Compound | MIC (Candida albicans [1]) [µg/mL] | MIC (Klebsiella pneumoniae [2]) [µg/mL] | MIC (Pseudomonas aeruginosa [3]; ATCC 25853, 24 h) [µg/mL] | MIC (Escherichia coli [4]) [µg/mL] | MIC (Bacillus subtilis [5]) [µg/mL] | MIC (Bacillus subtilis [6]; ATCC 6633, 24 h) [µg/mL] | MIC (Staphylococcus aureus [7]) [µg/mL] | MIC (Escherichia coli [8]; ATCC 25922, 24 h) [µg/mL] | MIC (Pseudomonas aeruginosa [9]) [µg/mL] | MIC (Staphylococcus aureus [10]; ATCC 25923, 24 h) [µg/mL] | MIC (Klebsiella pneumoniae [11]; RSKK 574, 24 h) [µg/mL] | MIC (Staphylococcus aureus [12]) [µg/mL] | MIC (Candida albicans [13]) [µg/mL] | MIC (Pseudomonas aeruginosa [3]) [µg/mL] | MIC (Bacillus subtilis [6]) [µg/mL] | MIC (Escherichia coli [8]) [µg/mL] | MIC (Staphylococcus aureus [10]) [µg/mL] | MIC (Klebsiella pneumoniae [11]) [µg/mL] | Ratio (Pseudomonas aeruginosa [14]) | Ratio (Pseudomonas aeruginosa [15]) |
| --- | --- | --- | --- | --- | --- | --- | --- | --- | --- | --- | --- | --- | --- | --- | --- | --- | --- | --- | --- | --- |
| O=C(Cc1ccc(Br)cc1)Nc1ccc(-c2nc3ccccc3s2)cc1 | 12.5 (≈ 29.5 µM) | 50 (≈ 118 µM) | 12.5 (≈ 29.5 µM) | 50 (≈ 118 µM) | 50 (≈ 118 µM) | 50 (≈ 118 µM) | 25 (≈ 59.1 µM) | 25 (≈ 59.1 µM) | 25 (≈ 59.1 µM) | 50 (≈ 118 µM) | 50 (≈ 118 µM) |  |  |  |  |  |  |  |  |  |
| c1ccc(OCc2nc3ccccc3s2)cc1 [2-(PHENOXYMETHYL)BENZOTHIAZOLE] |  |  |  |  |  |  |  |  |  |  |  | 3.12 (≈ 12.9 µM) | 3.12 (≈ 12.9 µM) |  |  |  |  |  |  |  |
| GENTAMICIN SULFATE |  | 6.25 |  | 12.5 | 0.19 |  | 6.25 |  | 50 |  |  |  |  | 1.56 | 0.39 | 0.78 | 0.78 | 0.39 |  |  |
| O=C(Nc1ccc(-c2nc3ccccc3s2)cc1)c1ccc(F)cc1 | 25 (≈ 71.8 µM) | 50 (≈ 144 µM) | 25 (≈ 71.8 µM) | 50 (≈ 144 µM) | 50 (≈ 144 µM) | 50 (≈ 144 µM) | 25 (≈ 71.8 µM) | 50 (≈ 144 µM) | 25 (≈ 71.8 µM) | 50 (≈ 144 µM) | 25 (≈ 71.8 µM) |  |  |  |  |  |  |  |  |  |
| CC(C)(C)c1ccc(C(=O)Nc2ccc(-c3nc4ccccc4s3)cc2)cc1 | 12.5 (≈ 32.3 µM) | 50 (≈ 129 µM) | 25 (≈ 64.7 µM) | 50 (≈ 129 µM) | 100 (≈ 259 µM) | 50 (≈ 129 µM) | 12.5 (≈ 32.3 µM) | 25 (≈ 64.7 µM) | 25 (≈ 64.7 µM) | 50 (≈ 129 µM) | 25 (≈ 64.7 µM) |  |  |  |  |  |  |  |  |  |
| O=C(Nc1ccc(-c2nc3ccccc3s2)cc1)c1ccc([N+](=O)[O-])cc1 | 12.5 (≈ 33.3 µM) | 50 (≈ 133 µM) | 25 (≈ 66.6 µM) | 50 (≈ 133 µM) | 50 (≈ 133 µM) | 50 (≈ 133 µM) | 12.5 (≈ 33.3 µM) | 25 (≈ 66.6 µM) | 25 (≈ 66.6 µM) | 50 (≈ 133 µM) | 50 (≈ 133 µM) |  |  |  |  |  |  |  |  |  |
| C[C@@H]1[C@H](O)[C@@H](C)/C=C/C=C/C=C/C=C/C=C/C=C/C=C/[C@H](O[C@@H]2O[C@H](C)[C@@H](O)[C@H](N)[C@@H]2O)C[C@@H]2O[C@](O)(C[C@@H](O)C[C@@H](O)[C@H](O)CC[C@@H](O)C[C@@H](O)CC(=O)O[C@H]1C)C[C@H](O)[C@H]2C(=O)O [AMPHOTERICIN B] | 0.78 (≈ 0.844 µM) |  |  |  |  |  |  |  |  |  |  |  |  |  |  |  |  |  |  |  |
| c1ccc(SCc2nc3ccccc3s2)cc1 [2-(PHENYLTHIOMETHYL)BENZO[D]THIAZOLE] |  |  |  |  |  |  |  |  |  |  |  |  | 3.12 (≈ 12.1 µM) |  |  |  |  |  |  |  |
| c1ccc(CCc2nc3ccccc3s2)cc1 [2-PHENETHYLBENZO[D]THIAZOLE] |  |  |  |  |  |  |  |  |  |  |  |  | 3.12 (≈ 13 µM) |  |  |  |  |  |  |  |
| O=C(Nc1ccc(-c2nc3ccccc3s2)cc1)c1ccc(Br)cc1 | 25 (≈ 61.1 µM) | 50 (≈ 122 µM) | 25 (≈ 61.1 µM) | 50 (≈ 122 µM) | 100 (≈ 244 µM) | 50 (≈ 122 µM) | 25 (≈ 61.1 µM) | 50 (≈ 122 µM) | 25 (≈ 61.1 µM) | 50 (≈ 122 µM) | 50 (≈ 122 µM) |  |  |  |  |  |  |  |  |  |
| CCc1ccc(C(=O)Nc2ccc(-c3nc4ccccc4s3)cc2)cc1 | 12.5 (≈ 34.9 µM) | 50 (≈ 139 µM) | 25 (≈ 69.7 µM) | 50 (≈ 139 µM) | 50 (≈ 139 µM) | 50 (≈ 139 µM) | 6.25 (≈ 17.4 µM) | 25 (≈ 69.7 µM) | 25 (≈ 69.7 µM) | 50 (≈ 139 µM) | 25 (≈ 69.7 µM) |  |  |  |  |  |  |  |  |  |
| CC1COc2c(N3CCN(C)CC3)c(F)cc3c(=O)c(C(=O)O)cn1c23 (stereo not given) [OFLOXACIN] |  | 3.12 (≈ 8.65 µM) | 6.25 (≈ 17.3 µM) | 6.25 (≈ 17.3 µM) | 3.12 (≈ 8.65 µM) | 0.19 (≈ 0.526 µM) | 1.56 (≈ 4.32 µM) | 0.19 (≈ 0.526 µM) | 50 (≈ 138 µM) | 0.19 (≈ 0.526 µM) | 0.19 (≈ 0.526 µM) |  |  |  |  |  |  |  |  |  |
| CO[C@H]1/C=C/O[C@@]2(C)Oc3c(C)c(O)c4c(O)c(c(/C=N/N5CCN(C)CC5)c(O)c4c3C2=O)NC(=O)/C(C)=C\C=C\[C@H](C)[C@H](O)[C@@H](C)[C@@H](O)[C@@H](C)[C@H](OC(C)=O)[C@@H]1C [RIFAMPIN] |  |  |  |  | 3.12 (≈ 3.8 µM) | 0.19 (≈ 0.231 µM) | 1.56 (≈ 1.9 µM) |  |  | 0.0225 (≈ 0.0273 µM) |  |  |  |  |  |  |  |  |  |  |
| Cc1ccc(CC(=O)Nc2ccc(-c3nc4ccccc4s3)cc2)cc1 | 25 (≈ 69.7 µM) | 50 (≈ 139 µM) | 25 (≈ 69.7 µM) | 50 (≈ 139 µM) | 50 (≈ 139 µM) | 50 (≈ 139 µM) | 25 (≈ 69.7 µM) | 50 (≈ 139 µM) | 25 (≈ 69.7 µM) | 50 (≈ 139 µM) | 25 (≈ 69.7 µM) |  |  |  |  |  |  |  |  |  |
| O=C(Cc1ccc(Cl)cc1)Nc1ccc(-c2nc3ccccc3s2)cc1 | 25 (≈ 66 µM) | 50 (≈ 132 µM) | 25 (≈ 66 µM) | 50 (≈ 132 µM) | 50 (≈ 132 µM) | 50 (≈ 132 µM) | 50 (≈ 132 µM) | 50 (≈ 132 µM) | 25 (≈ 66 µM) | 50 (≈ 132 µM) | 50 (≈ 132 µM) |  |  |  |  |  |  |  |  |  |
| c1ccc2sc(CCC3CCCCC3)nc2c1 |  |  |  |  |  |  |  |  |  |  |  |  | 3.12 (≈ 12.7 µM) |  |  |  |  |  |  |  |
| CC1(C)S[C@@H]2[C@H](NC(=O)[C@H](N)c3ccccc3)C(=O)N2[C@H]1C(=O)O.O.O.O [AMPICILLIN TRIHYDRATE] |  |  |  | 400 | 0.78 | 0.78 |  | 3.12 |  | 0.78 |  |  |  |  |  |  |  |  |  |  |
| Clc1ccc(OCc2nc3ccccc3s2)cc1 |  |  |  |  |  |  |  |  |  |  |  |  | 3.12 (≈ 11.3 µM) |  |  |  |  |  |  |  |
| O=C(Cc1ccc(F)cc1)Nc1ccc(-c2nc3ccccc3s2)cc1 | 25 (≈ 69 µM) | 50 (≈ 138 µM) | 25 (≈ 69 µM) | 50 (≈ 138 µM) | 25 (≈ 69 µM) | 50 (≈ 138 µM) | 50 (≈ 138 µM) | 25 (≈ 69 µM) | 25 (≈ 69 µM) | 100 (≈ 276 µM) | 50 (≈ 138 µM) |  |  |  |  |  |  |  |  |  |
| OC(Cn1cncn1)(Cn1cncn1)c1ccc(F)cc1F [FLUCONAZOLE] | 0.78 (≈ 2.55 µM) |  |  |  |  |  |  |  |  |  |  |  |  |  |  |  |  |  |  |  |
| O=C(Nc1ccc(-c2nc3ccccc3s2)cc1)c1ccc(Cl)cc1 | 25 (≈ 68.5 µM) | 25 (≈ 68.5 µM) | 25 (≈ 68.5 µM) | 50 (≈ 137 µM) | 50 (≈ 137 µM) | 50 (≈ 137 µM) | 12.5 (≈ 34.3 µM) | 50 (≈ 137 µM) | 25 (≈ 68.5 µM) | 50 (≈ 137 µM) | 50 (≈ 137 µM) |  |  |  |  |  |  |  |  |  |
| COc1ccc(CC(=O)Nc2ccc(-c3nc4ccccc4s3)cc2)cc1 | 12.5 (≈ 33.4 µM) | 50 (≈ 134 µM) | 25 (≈ 66.8 µM) | 25 (≈ 66.8 µM) | 50 (≈ 134 µM) | 12.5 (≈ 33.4 µM) | 12.5 (≈ 33.4 µM) | 12.5 (≈ 33.4 µM) | 6.25 (≈ 16.7 µM) | 50 (≈ 134 µM) | 12.5 (≈ 33.4 µM) |  |  |  |  |  |  |  | 3 | 3 |
